The text below walks through data of article PMC7760777 (Microorganisms, 2020).

Molecules are shown by their SMILES. “Also recorded” adds a separate entry of the source. Read-outs that look alike come from different tables or passages of the source.

Data set [1] has as its system SARS-CoV-2. In words: microbe, parasite or virus in culture. The conditions noted are these: Severe acute respiratory syndrome coronavirus 2, Vero C1008, 24 h.
Data set [2] relates to SARS-CoV-2. Particulars: Vero E6 cells; for inhibition of SARS-CoV-2 in compound dilution series: 4 µM to 0.062 µM, 24 h post-infection.
For data set [3], the system named is SARS-CoV-2. As to the kind of experiment: Survival screen: SARS-CoV-2-induced CPE, crystal violet staining. In kind it is cell-based. The conditions noted are these: Vero E6 cells, 1 µM, 2 h pretreatment, MOI 0.01, 48 h. On the procedure:
Vero E6 cells were seeded in 96-well clear bottom, black wall plates (Costar, Tewksbury, MA, USA), at a density of 20,000 cells per well, one day prior to the experiment. Cells were pretreated for 2 h with 1 µM of each compound contained in the PRB. Remdesivir, K22 [17], and vehicle controls (DMSO) were included in each plate. Subsequently, cells were infected with SARS-CoV-2 at a multiplicity of infection (MOI) of 0.01 in compound-containing medium and incubated at 37 °C in a humidified incubator with 5% CO2. Uninfected (mock) controls were included in each plate. At 48 h post-infection (hpi), cells were fixed with 4% (v/v) neutral buffered formalin (Formafix AG, Hittnau, Switzerland) and stained with crystal violet. Cell viability and cytotoxicity were assessed in parallel, in identically treated, uninfected plates. […]
To identify potential antiviral compounds against SARS-CoV-2 replication, 201 antibacterial, 46 antifungal and 153 antiviral molecules included in the PRB were screened using a conservative concentration of 1 µM. […] Cell survival was scored from 0 (virus-induced cytopathogenic effects; CPE) to 1 (no CPE), upon evaluation of SARS-CoV-2-induced CPE using crystal violet staining (Figure 1A). The cytotoxicity and cell viability were assessed on uninfected plates processed in parallel, to exclude detrimental effects of the compounds on the cells. […]

A short description of data set [4]: CellTox green cytotoxicity assay on Vero E6 cells. Particulars: African green monkey, Vero E6 cells (uninfected).
Data set [5] is described as follows: CellTiter-Glo 2.0 cell viability assay on Vero E6 cells. The conditions noted are these: African green monkey, Vero E6 cells (uninfected). For orientation: Cellular ATP, detected with luciferase, serves as a proxy for viable cell number.
A short description of data set [6]: CC50 determination on Calu-3 cells (cell viability). The conditions noted are these: human.
Data set [7] concerns Vero E6 cells. As to the kind of experiment: CellTox green cytotoxicity assay on Vero E6 cells. Particulars: Vero E6 cells, uninfected plates, 48 h.
A short description of data set [8]: in vitro. The conditions noted are these: African green monkey.
A short description of data set [9]: in vitro. The conditions noted are these: African green monkey. This is another data set of the same source.
The subject of data set [10] is SARS-CoV-2. As to the kind of experiment: microbe, parasite or virus in culture. The data set is classed as cell-based. The conditions noted are these: Severe acute respiratory syndrome coronavirus 2; Calu-3 cells, percentage of virus-infected cells, 2 h pretreatment, fixed 48 h post-infection.
The subject of data set [11] is Vero E6 cells. In words: CellTiter-Glo 2.0 cell viability assay on Vero E6 cells. Particulars: Vero E6 cells, uninfected plates, 48 h.
The subject of data set [12] is SARS-CoV-2. As to the kind of experiment: in vitro.
For data set [13], the system named is SARS-CoV-2. As to the kind of experiment: Time-of-addition experiment in Vero E6 cells. The data set is classed as cell-based. Particulars: 10 μM.
Data set [14] deals with SARS-CoV-2. In kind it is cell-based. Particulars: Vero E6 supernatants, dose-dependent, TCID50.
The mark [15] stands for this setting: Selective Index (SI), CC50 divided by EC50, Vero E6 cells.

One may read the EC90 as the point of the concentration-response curve where the effect stands at 90%. `CCN(CC)CCCC(C)Nc1ccnc2cc(Cl)ccc12` (centres unmarked) [Chloroquine] displayed an EC90 in the data set with SARS-CoV-2 [1] of 10.4 µM. For the same molecule, the “inhibition of SARS-CoV-2 in compound dilution series” value in the data set on SARS-CoV-2 [2] was “inhibited SARS-CoV-2 in a dose-dependent manner”.

Consider `O=C(N/C(=C\c1ccccc1)C(=O)N1CCC(O)(c2ccc(Br)cc2)CC1)c1ccccc1` [K22], for which the “inhibition of SARS-CoV-2-induced CPE in the survival screen” value in the data set with SARS-CoV-2 [3] is recorded as “did not show any inhibitory activity; also recorded: did not inhibit SARS-CoV-2 infection”.

Regarding `CCCCCCCCCN1C[C@H](O)[C@@H](O)[C@H](O)[C@H]1CO` [NN-DNJ, N-Nonyl Deoxynojirimycin], the CC50 at 48 h in [4], in [5] and in data set [6] was greater than 100 µM each time. Further, the “inhibition of SARS-CoV-2 in compound dilution series” value in the data set on SARS-CoV-2 [2] was “inhibited SARS-CoV-2 in a dose-dependent manner”.

Regarding `Cc1ccc(C)c(OCCCCCCN2C[C@H](O)[C@@H](O)[C@H](O)[C@H]2CO)c1` [PBDNJ0803], the CC50 at 48 h in data set [4], in data set [5] and in data set [6] was greater than 100 µM throughout. Also, the “inhibition of SARS-CoV-2 in compound dilution series” value in the data set on SARS-CoV-2 [2] is recorded as “inhibited SARS-CoV-2 in a dose-dependent manner”.

What is called EC50 is the concentration that produces a half-maximal response. With `CCC(CC)COC(=O)[C@H](C)N[P@](=O)(OC[C@H]1O[C@@](C#N)(c2ccc3c(N)ncnn23)[C@H](O)[C@@H]1O)Oc1ccccc1` [Remdesivir], the “influence on cell cytotoxicity in the screen” value in the data set on Vero E6 cells [7] was “did not influence cell cytotoxicity”. The CC50 in “in vitro [8]” and in “in vitro [9]” was greater than 100 µM each time. In the data set with SARS-CoV-2 [1], this molecule showed an EC90 of 3.39 µM. The EC50 with SARS-CoV-2 [10] was 0.17 µM. Moreover, in the data set with SARS-CoV-2 [2], the “Selective Index (SI), CC50 divided by EC50” value is on record as greater than 73.85. In the data set with Vero E6 cells [11], the “influence on cell viability in the screen” value was “did not influence”. Besides, the selectivity ratio in the data set on SARS-CoV-2 [12] (setting [15]) was greater than 73.8.

With `Cc1nc(-c2ccc([C@@H]3N(C)c4ccc(F)cc4C(=O)N3c3ccccc3)s2)cs1` [Retro-2.1], the CC50 at 48 h in data set [4] was greater than 100 µM. The EC90 with SARS-CoV-2 [1] turned out to be 1.03 µM. In addition, in the data set with SARS-CoV-2 [13] (MOI 0.01, 24 h post-infection), the “inhibitory effect on SARS-CoV-2-infected cells, treatment after infection (condition 3)” value is “most pronounced inhibitory effect”; the “inhibitory effect on SARS-CoV-2-infected cells, treatment during infection (condition 2)” value is given as “more pronounced inhibition”; the “inhibitory effect on SARS-CoV-2-infected cells, treatment prior to infection (condition 1)” value is reported as “only a marginal reduction”. Besides, in the data set with SARS-CoV-2 [13] (supernatant at 24 h post-infection), the “reduction in viral titer, treatment after infection (condition 3)” value is given as greater than 1000 fold. In the data set on SARS-CoV-2 [14], the “reduction in viral titer” value is listed as “strongest reduction”. Further, in the data set with SARS-CoV-2 [10], the EC50 worked out at 0.08 µM. Besides, in the data set with SARS-CoV-2 [2], the “inhibition of SARS-CoV-2 in compound dilution series” value is on record as “inhibited SARS-CoV-2 in a dose-dependent manner”. In data set [5], the CC50 at 48 h was greater than 100 µM. Besides, the CC50 at 48 h in [6] is greater than 100 µM. In the data set with SARS-CoV-2 [12], the selectivity ratio is greater than 239.

Turning to `CN1CCN(Cc2ccc(-c3cnc4[nH]cc(-c5ccc6[nH]ccc6c5)c4c3)cc2)CC1` [URMC-099-C], the CC50 at 48 h in [4] came to 24.9 µM; in data set [5] it was 14.7 µM; in data set [6] it was 15.5 µM. This molecule came in with an EC90 in the data set with SARS-CoV-2 [1] of 1.83 µM. Also, in the data set with SARS-CoV-2 [2], the “Selective Index (SI), CC50 divided by EC50” value came out at 50.69. The “inhibition of SARS-CoV-2 in compound dilution series” value in the data set with SARS-CoV-2 [2] is on record as “inhibited SARS-CoV-2 in a dose-dependent manner”. Moreover, the selectivity ratio with SARS-CoV-2 [12] (setting [15]) turned out to be 50.7.
